The source of these data is patent EP1655608A1, “CFTR as a component of an autophagy signaling pathway, applications thereof to autophagic diseases, and determination of cystic fibrosis as an autophagic disease” (priority 2004, dated 2006).

One data set concerns CFTR^-/- cells. Description: Starvation-induced autophagic death of CFTR-/- renal cells. The note with it: nutrient-free medium. It counts as cell-based, mouse. The procedure:
(§1) For nutrient deprivation, cells were washed with DMEM and first starved in minimal medium lacking serum for 90 min. Cells were then washed again with PBS and deprived for up to 16 h in nutrient-free medium lacking amino acids, vitamins, and serum (HBSS, 0.1% BSA, 20 mM HEPES, Sigma #H8264). As controls, cells were incubated in this nutrient-free medium supplemented with a mixture of non essential amino acids (0.1 mM, GIBCO, #11140-035).

Another data set concerns Sertoli 42GPA9 cells. Nature of the data set: Autophagic vacuolation of Sertoli cells (light, electron and confocal microscopy). Type of data set: cell-based, mouse. Particulars: for effect on Lindane-induced vacuolation: pretreatment 90 min before Lindane 50 µM, 3 MA 30 mM, BafA1 100 nM, NPPB 25 µM; for effect on Lindane-preformed vacuoles: added after vacuole formation; for induction of vacuolation / autophagy by the chemical alone: Lindane 50 µM, DDT 1.8 µM, Bϕ 90 µM, PCP 15 µM, SB203580 10 µM, NH4Cl 5 mM. The procedure: Autophagy was induced either by starvation or by treatment with Lindane under nutrient-rich condition.
(§2) When bafilomycin A1 (BafA1, V-ATPase-specific inhibitor, 100 nM, Sigma); Park Davis Inhibitor PD98059 (MEK1-specific inhibitor, 10 µM, Cell Signaling), H89 (PKA inhibitor, 5 µM, Calbiochem), 3-Methyladenine (3 MA, autophagy-specific inhibitor, 10-30 mM, Sigma) or NPPB [5-nitro-2-(3-phenylpropylamino) benzoic acid, Cl^- channel blocker, 25 µM, Sigma] was used, it was added to the starvation medium for 90 min, prior to Lindane addition or nutrient deprivation.
The ultrastructural changes caused by Lindane or starvation in Sertoli and renal cells were analysed by transmission electron microscopy, as previously described (57). […] Cell pellets were then rinsed in cacodylate buffer, postfixed in 1% OsO4 for 1 h at 4°C, dehydrated through graded ethanol washes, and embedded in epoxy resin. Oriented […] sections were obtained with diamond knives, and representative areas were chosen for ultra-thin sectioning. […] 30-50 micrographs were taken randomly from each sample at primary magnification × 10,000.
Sertoli cells seeded on glass coverslips were transiently transfected with EGFP-Rab7 or MEK1^+-HA expression plasmids using Fugene 6 reagent (Roche), washed and allowed to recover overnight before addition of Lindane (50 µM). […] To determine the pH of the Lindane-induced vacuoles, living cells were stained with acridine-orange (5 µg/ml, Sigma), a membrane-permeable weak base whose fluorescence shifts from green at neutral pH to red in acidic compartments (59). 10 min later, cells were washed and directly observed under a confocal microscope.

A further data set has as its system Sertoli cell. Particulars: reported, ref (84); cited from earlier work.
For another data set, the system named is p42^ERK2 and p44^ERK1. Description: ERK activation by anti-phospho-ERK Western blotting of cell lysates. It counts as cell-based, mouse. Particulars: for ERK activation in Sertoli cells: Lindane 50 µM, DDT 1.8 µM, Bϕ 90 µM, PCP 15 µM; for effect on Lindane-induced ERK activation: pretreatment, PD98059 10 µM, NPPB 25 µM, 90 min. An excerpt:
(§3) After stripping, equal loadings of proteins were verified by reprobing the blots with anti-ERK1 (Santa Cruz Biotechnology).
(In general: In western blotting, separated proteins are transferred to a membrane and probed.)

The subject of the next data set is PKA. Nature of the data set: CREB phosphorylation as readout of PKA activity. Type of data set: cell-based. Particulars: H89. The source says: The emerging issue is therefore how Lindane could activate CFTR Cl^- currents. One possibility would be that Lindane directly activates CFTR, but this appears unlikely because it required minutes instead of seconds to increase Cl^- conductance. […] To further explore this hypothesis, we tested the effect of Lindane on the renal proximal cell line (PCT1). […] Of particular interest, we provide several lines of evidence that the CFTR Δex10 channels remained functional in response to Lindane in PCT cells. […] These finding provide the first evidence that an agonist, e.g. Lindane, could activate CFTR Cl- current independently of PKA, raising the promise for new strategies using Lindane to restore Cl-conductance in cystic fibrosis patients with CFTR variants on PKA sites.

A further data set has as its target CFTR Cl^- channels (Homo sapiens, UniProt P13569). Particulars: NPPB 0.1 mM, glibenclamide 0.1 mM, external DIDS 1 mM; review (41); cited from earlier work.
Another data set has as its system CFTR^+/+ cells. Description: Starvation-induced autophagic death of CFTR+/+ renal cells. It counts as cell-based, mouse. Particulars: 16 hours nutrient deprivation. The procedure: as §1, §2
The target in the next data set is CFTR Cl^- channel (Mus musculus, UniProt P26361). Description: Whole-cell patch-clamp Cl- currents in Sertoli cells. It counts as cell-based. Also noted: endogenous in cells; host or cells: Sertoli 42GPA9 cell line (mouse). The procedure:
Whole cell currents were monitored from Sertoli cells, CFTR^-/- and WT renal epithelial cells with an RK 400 amplifier (Biologic, Münster, Germany) as previously described (40). The bath (extracellular) solution consisted of 140 mM NMDGCl (N-methyl-D-glucamine chloride), 5 mM D-Glucose, 1 mM CaCl2, and 10 mM HEPES, pH 7.4. Patch pipette (intracellular) solution contained 140 mM NMDGCl, 5 mM D-Glucose, 5 mM EGTA, 5 mM MgATP, and 10 mM HEPES, pH 7.4. Osmolarity of both solutions was adjusted to 280 mOSM by adding mannitol. These solutions were designed to study Cl^- currents because Cl^- is the sole permeant ion in these conditions and to prevent Ca^2+ activated Cl^- currents by the addition of EGTA in the patch solution. After establishment of whole cell configuration, cells were stimulated by the addition of Lindane (50 µM), FSK (10 µM), vehicle (Me2S0 or ethanol) in the absence or the presence of NPPB (0.1mM), DIDS (4,4'-diisothiocyanatostilbene-2,2'-disulfonic acid, 1 mM, Sigma), glibenclamide (0.1mM, Sigma) or PD98059 (10 µM) in the bath solution. The cell membrane potential was clamped at -50mV and 400 ms pulses were applied from -100 to +120 mV with increments of 20 mV every 2 s. To generate whole cell current-voltage (I-V) relationship, membrane currents resulting from voltage stimuli were recorded for at least 3 min and analysed using an IBM-AT-compatible computer equipped with Digidata 1200 interface (Axon Instruments) and pCLAMP software (versions 5.51 and 6.0, Axon Instruments), respectively. Statistics-Results are expressed as mean ± S.E. of n observations using the Student's t test.
Background: Patch clamp records ionic current or voltage across a cell membrane.

The next data set relates to p38. Nature of the data set: p38 / Jun kinase activation by Western blotting of Sertoli cell lysates. Particulars: Sertoli cell lysates treated for 15 min. It counts as cell-based, mouse.
From the text: as §3

Sequence of CFTR Cl^- channels (P13569 whole entry): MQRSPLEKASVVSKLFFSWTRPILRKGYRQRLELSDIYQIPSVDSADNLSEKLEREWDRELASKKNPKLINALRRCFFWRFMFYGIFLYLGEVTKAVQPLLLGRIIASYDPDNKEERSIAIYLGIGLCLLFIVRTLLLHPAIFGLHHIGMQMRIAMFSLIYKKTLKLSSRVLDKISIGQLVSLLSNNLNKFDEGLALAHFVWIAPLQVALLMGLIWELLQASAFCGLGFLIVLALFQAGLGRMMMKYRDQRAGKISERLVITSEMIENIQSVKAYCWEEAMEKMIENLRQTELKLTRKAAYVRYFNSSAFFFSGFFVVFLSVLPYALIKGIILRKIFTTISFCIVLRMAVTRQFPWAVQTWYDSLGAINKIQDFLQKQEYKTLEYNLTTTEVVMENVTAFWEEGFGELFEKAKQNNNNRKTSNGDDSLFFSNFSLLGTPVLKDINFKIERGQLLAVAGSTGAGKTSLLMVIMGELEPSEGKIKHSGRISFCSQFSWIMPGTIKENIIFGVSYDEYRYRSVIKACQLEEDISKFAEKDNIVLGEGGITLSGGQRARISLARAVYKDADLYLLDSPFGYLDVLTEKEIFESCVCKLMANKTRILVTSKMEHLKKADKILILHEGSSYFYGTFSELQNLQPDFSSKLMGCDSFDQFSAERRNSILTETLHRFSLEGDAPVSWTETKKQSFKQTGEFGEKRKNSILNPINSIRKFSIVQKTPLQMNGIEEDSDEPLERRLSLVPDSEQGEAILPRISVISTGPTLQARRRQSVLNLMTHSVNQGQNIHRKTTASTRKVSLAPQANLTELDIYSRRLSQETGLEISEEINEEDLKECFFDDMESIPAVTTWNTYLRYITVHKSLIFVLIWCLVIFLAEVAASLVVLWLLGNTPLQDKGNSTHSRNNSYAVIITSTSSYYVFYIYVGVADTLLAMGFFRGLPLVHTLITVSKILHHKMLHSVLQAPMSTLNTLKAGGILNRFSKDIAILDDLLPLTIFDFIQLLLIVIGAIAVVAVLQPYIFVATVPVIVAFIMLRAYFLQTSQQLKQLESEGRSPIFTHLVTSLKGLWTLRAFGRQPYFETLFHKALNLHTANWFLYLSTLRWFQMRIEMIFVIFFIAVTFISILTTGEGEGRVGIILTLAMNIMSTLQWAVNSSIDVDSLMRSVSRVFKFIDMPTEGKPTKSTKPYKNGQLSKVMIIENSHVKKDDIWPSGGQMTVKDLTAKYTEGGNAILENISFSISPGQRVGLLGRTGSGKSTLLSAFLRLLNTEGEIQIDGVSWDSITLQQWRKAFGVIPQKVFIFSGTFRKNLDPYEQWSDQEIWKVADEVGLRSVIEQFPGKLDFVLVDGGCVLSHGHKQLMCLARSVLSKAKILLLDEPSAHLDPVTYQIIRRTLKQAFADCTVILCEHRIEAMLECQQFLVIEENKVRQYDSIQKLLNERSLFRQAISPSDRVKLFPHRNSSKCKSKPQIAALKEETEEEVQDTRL
Sequence of CFTR Cl^- channel (P26361 whole entry): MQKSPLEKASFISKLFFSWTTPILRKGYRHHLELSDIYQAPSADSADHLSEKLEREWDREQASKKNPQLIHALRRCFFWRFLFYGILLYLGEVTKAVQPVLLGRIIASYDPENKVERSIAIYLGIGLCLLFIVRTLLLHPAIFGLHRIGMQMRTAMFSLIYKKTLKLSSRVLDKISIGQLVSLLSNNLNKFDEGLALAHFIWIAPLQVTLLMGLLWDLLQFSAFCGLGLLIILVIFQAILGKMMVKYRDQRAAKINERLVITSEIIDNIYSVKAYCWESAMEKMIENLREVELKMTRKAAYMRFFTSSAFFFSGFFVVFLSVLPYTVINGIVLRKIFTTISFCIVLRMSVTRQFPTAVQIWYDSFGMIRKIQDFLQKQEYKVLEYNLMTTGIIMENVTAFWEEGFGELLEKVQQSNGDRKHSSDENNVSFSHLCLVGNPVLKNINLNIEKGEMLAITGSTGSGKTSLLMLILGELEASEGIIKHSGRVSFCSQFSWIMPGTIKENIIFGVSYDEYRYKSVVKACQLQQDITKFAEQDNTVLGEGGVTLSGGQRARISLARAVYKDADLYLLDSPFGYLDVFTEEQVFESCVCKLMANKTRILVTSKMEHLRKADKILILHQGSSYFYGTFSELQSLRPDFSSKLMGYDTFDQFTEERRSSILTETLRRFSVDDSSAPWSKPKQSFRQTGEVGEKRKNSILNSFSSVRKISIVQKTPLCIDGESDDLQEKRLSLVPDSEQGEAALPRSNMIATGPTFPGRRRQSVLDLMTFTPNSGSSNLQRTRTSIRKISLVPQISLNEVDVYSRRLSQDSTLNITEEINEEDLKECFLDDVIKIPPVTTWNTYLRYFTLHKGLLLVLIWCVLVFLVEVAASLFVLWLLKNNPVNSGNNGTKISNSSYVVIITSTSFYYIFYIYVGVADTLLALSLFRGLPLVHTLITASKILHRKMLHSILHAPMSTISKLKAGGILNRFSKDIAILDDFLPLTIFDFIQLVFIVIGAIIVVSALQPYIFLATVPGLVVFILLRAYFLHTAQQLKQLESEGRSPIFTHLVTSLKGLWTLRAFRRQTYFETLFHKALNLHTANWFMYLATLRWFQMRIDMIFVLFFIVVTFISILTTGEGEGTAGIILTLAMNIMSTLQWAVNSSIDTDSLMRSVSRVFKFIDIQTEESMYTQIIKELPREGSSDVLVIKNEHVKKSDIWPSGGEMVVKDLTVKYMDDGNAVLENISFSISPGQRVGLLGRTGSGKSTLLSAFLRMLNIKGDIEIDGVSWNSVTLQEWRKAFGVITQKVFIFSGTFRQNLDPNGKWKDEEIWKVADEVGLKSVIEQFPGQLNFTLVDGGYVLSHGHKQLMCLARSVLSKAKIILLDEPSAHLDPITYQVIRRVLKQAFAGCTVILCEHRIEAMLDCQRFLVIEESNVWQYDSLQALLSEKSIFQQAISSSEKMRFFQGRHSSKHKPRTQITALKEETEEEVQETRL

As to `Cn1cnc(N)c2ncnc1-2` [3 MA, 3-Methyladenine], the “effect on starvation-induced death of CFTR^-/- cells” value with CFTR^-/- cells is given as “arrested starvation-induced cell death”. Moreover, the “effect on Lindane-induced vacuolation” value in the data set with Sertoli 42GPA9 cells (24 h, PD98059 10 µM) is “dramatically reduced”.
As for `CO/C1=C\C(C)=C\[C@@H](C)[C@@H](O)[C@@H](C)C/C(C)=C/C=C/[C@H](OC)[C@@H]([C@@H](C)[C@@H](O)[C@H](C)[C@@]2(O)C[C@@H](O)[C@H](C)[C@@H](C(C)C)O2)OC1=O` [BafA1, bafilomycin A1], the “effect on Lindane-preformed vacuoles” value with Sertoli 42GPA9 cells is “collapsed Lindane-preformed vacuoles”. Besides, the “effect on Lindane-induced vacuolation” value in the data set on Sertoli 42GPA9 cells (24 h, PD98059 10 µM) was “prevented their formation”.
With `Clc1ccc(C(c2ccc(Cl)cc2)C(Cl)(Cl)Cl)cc1` [DDT], the “Sertoli cell vacuolation in vivo” value in the data set on Sertoli cell was “reported to promote Sertoli cell vacuolation”. For the same compound, the “ERK activation in Sertoli cells” value in the data set on p42^ERK2 and p44^ERK1 was “induced the activation of both p42^ERK2 and p44^ERK1”. Further, the “induction of vacuolation / autophagy by the chemical alone” value (“induction of vacuolation / autophagy” below) with Sertoli 42GPA9 cells (24 h) was “induced vacuolation”.
With `O=S(=O)(NCCNCC=Cc1ccc(Br)cc1)c1cccc2cnccc12` [H89], the “effect on Lindane-induced CREB phosphorylation” value in the data set on PKA is “failed to counteract Lindane-induced CREB phosphorylation”.
With `Cl.N` [NH4Cl], the “induction of vacuolation / autophagy” value in the data set on Sertoli 42GPA9 cells (24 h) is “did not alter cell morphology”. Also, in the data set with Sertoli 42GPA9 cells (NH4Cl 5 mM added to medium), the “effect on toxicant-induced vacuole development” value is listed as “accelerated toxicant-induced vacuole development”.
For `O=C(O)c1cc([N+](=O)[O-])ccc1NCCCc1ccccc1` [NPPB, 5-nitro-2-(3-phenylpropylamino) benzoic acid], the “sensitivity of CFTR Cl^- channels to blocker” value on CFTR Cl^- channels is on record as “sensitive”. In addition, the “outcome of CFTR^+/+ cells under nutrient deprivation in the presence of inhibitor” value in the data set with CFTR^+/+ cells is given as “cell death”. The “effect on Lindane-induced ERK activation” value in the data set with p42^ERK2 and p44^ERK1 is on record as “still stimulated”. The “effect on Lindane-preformed vacuoles” value with Sertoli 42GPA9 cells is given as “collapsed Lindane-preformed vacuoles”. Moreover, the “effect on Lindane-induced vacuolation” value in the data set with Sertoli 42GPA9 cells (24 h, PD98059 10 µM) is “abrogated Lindane-induced vacuolation”.
Turning to `COc1cccc(-c2cc(=O)c3ccccc3o2)c1N` [PD98059], the “effect on Lindane-induced CFTR Cl- conductance” value on CFTR Cl^- channel (PD98059 10 µM + Lindane) is “dramatically reduced”. For the same compound, the “whole-cell I-V relationship with inhibitor alone” value on CFTR Cl^- channel (PD98059 alone) is given as “identical to control I-V”. The “outcome of CFTR^+/+ cells under nutrient deprivation in the presence of inhibitor” value in the data set with CFTR^+/+ cells is on record as “cell death”. In addition, the “effect on Lindane-induced ERK activation” value in the data set on p42^ERK2 and p44^ERK1 is “drastically reduced the ability of Lindane to activate ERK”. In addition, in the data set on Sertoli 42GPA9 cells (PD98059 10 µM + Lindane, electron microscopy), the “ultrastructure in the presence of inhibitor plus Lindane” value is on record as “dramatic accumulation of lamellar structures”. Also, the “effect on chloroquine-induced vacuolation” value with Sertoli 42GPA9 cells (chloroquine 500 µM, 24 h, PD98059 10 µM) is recorded as “did not affect chloroquine-induced vacuolation”. Moreover, in the data set with Sertoli 42GPA9 cells (24 h, PD98059 10 µM), the “effect on Lindane-induced vacuolation” value is listed as “abrogated Lindane-induced vacuolation”.
Regarding `Oc1c(Cl)c(Cl)c(Cl)c(Cl)c1Cl` [Pentachlorophenol], in the data set on Sertoli cell, the “Sertoli cell vacuolation in vivo” value was “does not”. For the same compound, the p38 activation result with p38 is listed as “concomitantly activated p38”. Also, in the data set with p42^ERK2 and p44^ERK1, the “ERK activation in Sertoli cells” value is on record as “strong activator of ERK1/2”. Also, in the data set with Sertoli 42GPA9 cells (24 h), the “induction of vacuolation / autophagy” value is recorded as “no vacuolation was observed”.
Take `COc1ccc(Cl)cc1C(=O)NCCc1ccc(S(=O)(=O)NC(=O)NC2CCCCC2)cc1` [glibenclamide]: on CFTR Cl^- channels, the “sensitivity of CFTR Cl^- channels to blocker” value is given as “sensitive”.
biphenol A: the “ERK activation in Sertoli cells” value in the data set on p42^ERK2 and p44^ERK1 was “induced the activation of both p42^ERK2 and p44^ERK1”. Moreover, the “induction of vacuolation / autophagy” value in the data set on Sertoli 42GPA9 cells (24 h) is “induced vacuolation”.
